{"source": "paper PMC7408072", "about": "(Pharmaceutics, 2020)", "key": {"[1]": {"test_system": "bovine BCECs co-cultured with rat astrocytes", "assay": "Peptide uptake into endothelial cells and astrocytes by confocal microscopy after fixation (bovine BBB model)", "type": "cell-based", "settings": "fixed cells; for peptide uptake in the astrocytes, 3 h: 100 µM peptide applied luminally; for peptide uptake in the astrocytes, 3 h / peptide uptake in the endothelial cells, 3 h: TAMRA fluorescence, confocal microscopy; for peptide uptake in the endothelial cells, 3 h / peptide uptake in the astrocytes, 15 min / peptide uptake in the endothelial cells, 15 min: 100 µM peptide; for peptide uptake in the astrocytes, 15 min / peptide uptake in the endothelial cells, 15 min: confocal microscopy (Figure S3)", "method": "[…] TEER was measured at room temperature using an Endohm 12 cup (World Precision Instruments, Sarasota, FL, USA) connected to a Millicell-ERS device (Millipore, Bedford, MA, USA). TEER was measured before application of the peptides and after each experiment. The bovine model had initial TEER values ranging from 771 to 1332 Ω·cm^2, whereas the mouse model had initial TEER values ranging from 136 to 217 Ω·cm^2.\nTo visualize the TAMRA-peptide taken up by the endothelial cells and astrocytes, the remaining filters (one per batch) from the permeation study using the in vitro bovine BBB model were prepared for confocal microscopy. After removal of the peptide solutions, the cells were fixed with 3% paraformaldehyde in PBS for 15 min at room temperature with horizontal shaking (90 rpm). The cells were washed thrice with PBS prior to permeabilization in 0.1% Triton X-100 in PBS for 5 min and blocking in 2% BSA in PBS for 30 min at room temperature with horizontal shaking (90 rpm). The filter inserts were cut out, divided into smaller pieces, and transferred to a 48-well plate to stain zonula ocludens-1 (ZO-1) in the BCECs and F-actin in the astrocytes. Filter pieces with BCECs facing upwards were incubated with a primary antibody directed against ZO-1 (1:100 in PBS with 2% BSA; Thermo Fischer Scientific, Bedford, MA, USA, no. 617300) for 2 h at room temperature. Subsequently, the filters were washed thrice for 5 min in PBS with 2% BSA prior to 30 min incubation with an Alexa-488-conjugated secondary antibody (1:100 in PBS with 2% BSA; Thermo Fischer Scientific, Bedford, MA, USA, no. A11008). Filter pieces with astrocytes facing upwards were incubated with Alexa-488-conjugated phalloidin (1:133 in PBS with 2% BSA; Thermo Fischer Scientific, Bedford, MA, USA) for 30 min at room temperature and washed thrice for 5 min in PBS with 2% BSA. The filter pieces were mounted on glass slides under coverslips using Immu-Mount™ mounting media and imaged using single wavelength excitation a Zeiss 510 laser-scanning confocal microscope (Carl Zeiss, Jena, Germany)."}, "[2]": {"test_system": "bovine BCEC monolayers co-cultured with rat astrocytes", "assay": "Transport, membrane adherence and cell uptake quantified by TAMRA fluorescence (bovine model)", "type": "in vitro ADME", "settings": "3 h, 37 °C, N = 2-3, n = 3; for peptide adhering to the cell surface / peptide taken up by the cells (endothelial cells and astrocytes): 100 µM peptide, TAMRA fluorescence 542/568 nm, mean ± SEM; for peptide adhering to the cell surface: acetic acid buffer pH 3 wash fraction; for peptide taken up by the cells (endothelial cells and astrocytes): lysate fraction; for peptide transported across the barrier (abluminal content): 100 µM peptide luminal, 90 rpm, medium with 10% FBS, abluminal TAMRA fluorescence, compared to TAMRA-NR2B9c", "method": "Transport across bovine or mouse BCEC monolayers co-cultured with rat astrocytes was carried out over 3 h at 37 °C with horizontal shaking (90 rpm). TEER was measured at room temperature using an Endohm 12 cup (World Precision Instruments, Sarasota, FL, USA) connected to a Millicell-ERS device (Millipore, Bedford, MA, USA). TEER was measured before application of the peptides and after each experiment. The bovine model had initial TEER values ranging from 771 to 1332 Ω·cm^2, whereas the mouse model had initial TEER values ranging from 136 to 217 Ω·cm^2.\nTAMRA fluorescence was measured using a NovoStar fluorescence plate reader (BMG Labtech, Offenburg, Germany) with excitation/emission set to 542/568 nm. The transported peptide was calculated using standard curves ranging from 31 nM to 2 µM. All peptide standard curves were subjected to 3 h of incubation at 37 °C with horizontal shaking (90 rpm) in differentiation media withdrawn from BCECs co-cultured with rat astrocytes.\nTwo filters from each BCEC batch were subjected to quantification of the TAMRA-peptide adhering to the BCEC plasma membrane and peptide taken up by the BCECs and astrocytes. […] The peptide solutions were removed from the cells and the filters washed thrice with 37 °C hHBSS. To isolate the peptide fraction adhering to the plasma membrane, the BCECs were placed on ice and incubated with 300 µL ice-cold acetic acid buffer ([…], 1% BSA, pH 3) for 5 min. The acetic acid buffer solution was gently pipetted up and down twice prior to collection of 100 µL samples into a black clear-bottom 96-well plate for analysis. The remaining acetic acid buffer solution was removed from the luminal chamber and the cells washed thrice with ice-cold hHBSS. To isolate the peptide fraction being taken up by the BCECs and astrocytes, the filter inserts were cut out and 150 µL of ice-cold lysis buffer (10 mM Tris-HCl, 0.25 M sucrose, 1 mM EDTA, 1 mM ethylene-bis(oxyethylenenitrilo)tetraacetic acid tetrasodium (EGTA), 2% Tergitol™, Complete® inhibitor tablet) added prior to incubation for 10 min on ice. The cells were homogenized using a pellet pestle (Merck, St. Louis) and subjected to centrifugation at 10,000× g at 4 °C for 10 min. The 100 µL supernatant was transferred into a black clear-bottom 96-well plate. TAMRA fluorescence was measured using a NovoStar fluorescence plate reader (BMG Labtech, Offenburg, Germany) with excitation/emission set to 542/568 nm. The molar amount of membrane-adhered peptide and peptide taken up by the cells was calculated using standard curves freshly prepared in acetic acid buffer and lysis buffer, respectively, in concentrations ranging from 40 nM to 2.5 µM."}}, "note": "Peptide text beside a SMILES is read from it. * marks the point of attachment. 5TAMRA = CN(C)c1ccc2c(c1)Oc1cc(N(C)C)ccc1C21OC(=O)c2cc(C(=O)*)ccc21"}
{"smiles": "CC[C@H](C)[C@H](NC(=O)[C@H](CO)NC(=O)[C@H](CO)NC(=O)[C@H](CC(C)C)NC(=O)[C@H](CCCCN)NC(=O)c1ccc2c(c1)C(=O)OC21c2ccc(N(C)C)cc2Oc2cc(N(C)C)ccc21)C(=O)N[C@@H](CCC(=O)O)C(=O)N[C@@H](CO)C(=O)N[C@@H](CC(=O)O)C(=O)N[C@H](C(=O)O)C(C)C", "note": "[TAMRA-NR2B9c] (5TAMRA-KLSSIESDV-OH)", "values": [{"measurement": "peptide uptake in the astrocytes, 3 h", "setting": "[1]", "result": "not observed"}, {"measurement": "peptide uptake in the endothelial cells, 3 h", "setting": "[1]", "result": "not observed"}, {"measurement": "peptide adhering to the cell surface", "setting": "[2]", "result": "Minute amounts"}, {"measurement": "peptide taken up by the cells (endothelial cells and astrocytes)", "setting": "[2]", "result": "Minute amounts"}]}
{"smiles": "CC[C@H](C)[C@H](NC(=O)CCOCCOCCN(CCOCCOCCC(=O)N[C@H](C(=O)N[C@@H](CCC(=O)O)C(=O)N[C@H](C(=O)N[C@@H](CC(=O)O)C(=O)N[C@H](C(=O)O)C(C)C)[C@@H](C)O)[C@@H](C)CC)C(=O)[C@H](CCCNC(=N)N)NC(=O)[C@H](CCCNC(=N)N)NC(=O)[C@H](CCCNC(=N)N)NC(=O)[C@H](CCC(N)=O)NC(=O)[C@H](CCCNC(=N)N)NC(=O)[C@H](CCCNC(=N)N)NC(=O)[C@H](CCCCN)NC(=O)[C@H](CCCCN)NC(=O)[C@H](CCCNC(=N)N)NC(=O)CNC(=O)[C@H](Cc1ccc(O)cc1)NC(=O)c1ccc2c(c1)C(=O)OC21c2ccc(N(C)C)cc2Oc2cc(N(C)C)ccc21)C(=O)N[C@@H](CCC(=O)O)C(=O)N[C@H](C(=O)N[C@@H](CC(=O)O)C(=O)N[C@H](C(=O)O)C(C)C)[C@@H](C)O", "note": "[TAMRA-Tat-N-dimer]", "values": [{"measurement": "peptide uptake in the astrocytes, 3 h", "setting": "[1]", "result": "not in the astrocytes"}, {"measurement": "peptide uptake in the astrocytes, 15 min", "setting": "[1]", "result": "not in the astrocytes"}, {"measurement": "peptide uptake in the endothelial cells, 15 min", "setting": "[1]", "result": "Minor uptake"}, {"measurement": "peptide uptake in the endothelial cells, 3 h", "setting": "[1]", "result": "low level"}, {"measurement": "peptide transported across the barrier (abluminal content)", "setting": "[2]", "result": "No significant difference"}, {"measurement": "peptide adhering to the cell surface", "setting": "[2]", "result": "Minute amounts"}, {"measurement": "peptide taken up by the cells (endothelial cells and astrocytes)", "setting": "[2]", "result": "Minute amounts"}]}
{"smiles": "CC[C@H](C)[C@H](NC(=O)[C@H](CO)NC(=O)[C@H](CO)NC(=O)[C@H](CC(C)C)NC(=O)[C@H](CCCCN)NC(=O)[C@H](CCCNC(=N)N)NC(=O)[C@H](CCCNC(=N)N)NC(=O)[C@H](CCCNC(=N)N)NC(=O)[C@H](CCC(N)=O)NC(=O)[C@H](CCCNC(=N)N)NC(=O)[C@H](CCCNC(=N)N)NC(=O)[C@H](CCCCN)NC(=O)[C@H](CCCCN)NC(=O)[C@H](CCCNC(=N)N)NC(=O)CNC(=O)[C@H](Cc1ccc(O)cc1)NC(=O)c1ccc2c(c1)C(=O)OC21c2ccc(N(C)C)cc2Oc2cc(N(C)C)ccc21)C(=O)N[C@@H](CCC(=O)O)C(=O)N[C@@H](CO)C(=O)N[C@@H](CC(=O)O)C(=O)N[C@H](C(=O)O)C(C)C", "note": "[TAMRA-Tat-NR2B9c] (5TAMRA-YGRKKRRQRRRKLSSIESDV-OH)", "values": [{"measurement": "peptide uptake in the astrocytes, 3 h", "setting": "[1]", "result": "observed in both cell types"}, {"measurement": "peptide uptake in the astrocytes, 15 min", "setting": "[1]", "result": "uptake"}, {"measurement": "peptide uptake in the endothelial cells, 15 min", "setting": "[1]", "result": "uptake"}, {"measurement": "peptide uptake in the endothelial cells, 3 h", "setting": "[1]", "result": "observed in both cell types"}, {"measurement": "peptide transported across the barrier (abluminal content)", "setting": "[2]", "result": "to a greater extent than TAMRA-NR2B9c"}, {"measurement": "peptide adhering to the cell surface", "setting": "[2]", "result": "Significantly larger amounts"}, {"measurement": "peptide taken up by the cells (endothelial cells and astrocytes)", "setting": "[2]", "result": "Significantly larger amounts"}]}
{"smiles": "CN(C)c1ccc2c(c1)Oc1cc(N(C)C)ccc1C21OC(=O)c2cc(C(=O)N[C@@H](Cc3ccc(O)cc3)C(=O)NCC(=O)N[C@@H](CCCNC(=N)N)C(=O)N[C@@H](CCCCN)C(=O)N[C@@H](CCCCN)C(=O)N[C@@H](CCCNC(=N)N)C(=O)N[C@@H](CCCNC(=N)N)C(=O)N[C@@H](CCC(N)=O)C(=O)N[C@@H](CCCNC(=N)N)C(=O)N[C@@H](CCCNC(=N)N)C(=O)N[C@@H](CCCNC(=N)N)C(=O)O)ccc21", "note": "[TAMRA-Tat]", "values": [{"measurement": "peptide uptake in the astrocytes, 3 h", "setting": "[1]", "result": "observed in both cell types"}, {"measurement": "peptide uptake in the astrocytes, 15 min", "setting": "[1]", "result": "uptake"}, {"measurement": "peptide uptake in the endothelial cells, 15 min", "setting": "[1]", "result": "uptake"}, {"measurement": "peptide uptake in the endothelial cells, 3 h", "setting": "[1]", "result": "observed in both cell types"}, {"measurement": "peptide transported across the barrier (abluminal content)", "setting": "[2]", "result": "to a greater extent than TAMRA-NR2B9c"}, {"measurement": "peptide adhering to the cell surface", "setting": "[2]", "result": "Significantly larger amounts"}, {"measurement": "peptide taken up by the cells (endothelial cells and astrocytes)", "setting": "[2]", "result": "Significantly larger amounts"}]}
